Data from patent publication US20100173987A1, “ACTIVE AGENT COMBINATIONS WITH INSECTICIDAL AND ACARICIDAL PROPERTIES” (priority 2006, published 2010).

Legend:
Type in all cases: in vivo
[1] = tested on: Frankliniella occidentalis; assay: Greenhouse test on bell pepper against Western flower thrips; details: on 15 open flowers
Description: (§1) In a greenhouse of a size of 4000 m^2 run in accordance with an IPM program (no insecticide used), bell pepper plants of the cultivar “Requena” on perlite substrates are, about 11 weeks after transplanting, tested comparatively against Western flower thrips (Frankliniella occidentalis) using spiromesifen (240 SC) and the non-beneficial-species-sparing standard formetanate (50 SP) at the stated application rates. Two applications are carried out at an interval of 14 days. Application is by knapsack sprayer. A water application rate of 1000 l/ha is applied.
(§2) Evaluations are carried out 7, 14, 21 and 28 days after the first treatment. As a natural enemy (beneficial species) of the Western flower thrips, use is made of Orius laevigalus from the family of the pirate bugs (Anthochoridae). Evaluation is carried out by counting the number of Western flower thrips on 15 open flowers. The number of beneficial species is also scored.

Orius laevigalus = assay: Greenhouse test on bell pepper: number of beneficial species scored
Description: as §1, §2

Bemisia tabaci = Bemisia tabaci test (cotton leaves, spray, mirid bugs added); details: 0.16 ppm, infested cotton leaves sprayed
Description: Solvent: 7 parts by weight of dimethylformamide Emulsifier: 2 parts by weight of alkylaryl polyglycol ether
To produce a suitable preparation of active compound, 1 part by weight of active compound is mixed with the stated amounts of solvent and emulsifier, and the concentrate is diluted with emulsifier-containing water to the desired concentration.
Cotton leaves (Gossypium hirsutum) infested by the whitefly (Bemisia tabacii) are treated by being sprayed with the preparation of active compound at the desired concentration.
After the desired period of time, a defined amount of mirid bugs (Macrolophus caliginosus) is added.
After the desired period of time, the kill of the pest in % is determined. 100% means that all whiteflies have been killed; 0% means that none of the whiteflies have been killed. The determined kill rates are entered into Colby's formula.

[2] = application 0.2 % (50 SP), 7 d after first treatment
[3] = application 0.2 % (50 SP), 14 d after first treatment
[4] = application 0.2 % (50 SP), 21 d after first treatment
[5] = application 0.2 % (50 SP), 28 d after first treatment
[6] = application 0.06 % (240 SC), 14 d after first treatment
[7] = application 0.06 % (240 SC), 21 d after first treatment
[8] = application 0.06 % (240 SC), 28 d after first treatment

Row | SMILES | Number Frankliniella occidentalis larvae + adults [1, 2] | Number Frankliniella occidentalis larvae + adults [1, 3] | Number Frankliniella occidentalis larvae + adults [1, 4] | Number Frankliniella occidentalis larvae + adults [1, 5] | Number Orius laevigalus larvae + adults (Orius laevigalus; [2]) | Number Orius laevigalus larvae + adults (Orius laevigalus; [3]) | Number Orius laevigalus larvae + adults (Orius laevigalus; [4]) | Number Orius laevigalus larvae + adults (Orius laevigalus; [5]) | Kill in % after 14 d (Bemisia tabaci) [%] | Number Frankliniella occidentalis larvae + adults ([1]; application 0.06 % (240 SC), 7 d after first treatment, bell pepper greenhouse) | Number Frankliniella occidentalis larvae + adults [1, 6] | Number Frankliniella occidentalis larvae + adults [1, 7] | Number Frankliniella occidentalis larvae + adults [1, 8] | Number Orius laevigalus larvae + adults (Orius laevigalus; application 0.06 % (240 SC), 7 d after first treatment) | Number Orius laevigalus larvae + adults (Orius laevigalus; [6]) | Number Orius laevigalus larvae + adults (Orius laevigalus; [7]) | Number Orius laevigalus larvae + adults (Orius laevigalus; [8])
1 | CNC(=O)Oc1cccc(N=CN(C)C)c1 [Formetanate, reference compound] | 2 | 3.5 | 8 | 18.8 | 0.3 | 0 | 0.3 | 0.3 |  |  |  |  |  |  |  |  | 
2 | Cc1cc(C)c(C2=C(OC(=O)CC(C)(C)C)C3(CCCC3)OC2=O)c(C)c1 [Spiromesifen (Ex. I-b-1), Spiromesifen] |  |  |  |  |  |  |  |  | 1.25 | 16.7 | 13.7 | 9 | 13.7 | 2.5 | 3.7 | 7.3 | 9
